Key:
[1] = tested on: HAP1 MTAP-deleted; experiment: SDMA in-cell western assay, HAP1 MTAP-deleted cell line; type: cell-based; conditions: for IC50: Homo sapiens, HAP1 MTAP-deleted cell line; for MTAP Intact/Deleted Ratio: IC50 ratio HAP1 MTAP-intact / HAP1 MTAP-deleted
Outline: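 In-cell western for SDMA marks; MTAP-deleted (null) HAP1 background; values given as IC50.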

[2] = tested on: HAP1 MTAP-intact; experiment: SDMA in-cell western assay, HAP1 MTAP-intact cell line; type: cell-based; conditions: Homo sapiens
Outline: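 Using an MTAP-isogenic HAP1 cell pair, inhibition of SDMA formation is read by in-cell western and expressed as IC50. MTAP-selectivity is assigned where the ratio between lines reaches 3 fold or greater.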

[3] = molecular target: T1, PRMT5 (Homo sapiens, UniProt O14744); experiment: PRMT5 IC50 assay in the presence of MTA as cofactor; type: biochemical; conditions: for IC50: PRMT5, MTA as cofactor; for SAM/MTA Ratio: ratio between Ki in the presence of SAM and Ki in the presence of MTA
T1 construct: purchased Viva (custom protein)
T1 sequence (O14744 whole entry): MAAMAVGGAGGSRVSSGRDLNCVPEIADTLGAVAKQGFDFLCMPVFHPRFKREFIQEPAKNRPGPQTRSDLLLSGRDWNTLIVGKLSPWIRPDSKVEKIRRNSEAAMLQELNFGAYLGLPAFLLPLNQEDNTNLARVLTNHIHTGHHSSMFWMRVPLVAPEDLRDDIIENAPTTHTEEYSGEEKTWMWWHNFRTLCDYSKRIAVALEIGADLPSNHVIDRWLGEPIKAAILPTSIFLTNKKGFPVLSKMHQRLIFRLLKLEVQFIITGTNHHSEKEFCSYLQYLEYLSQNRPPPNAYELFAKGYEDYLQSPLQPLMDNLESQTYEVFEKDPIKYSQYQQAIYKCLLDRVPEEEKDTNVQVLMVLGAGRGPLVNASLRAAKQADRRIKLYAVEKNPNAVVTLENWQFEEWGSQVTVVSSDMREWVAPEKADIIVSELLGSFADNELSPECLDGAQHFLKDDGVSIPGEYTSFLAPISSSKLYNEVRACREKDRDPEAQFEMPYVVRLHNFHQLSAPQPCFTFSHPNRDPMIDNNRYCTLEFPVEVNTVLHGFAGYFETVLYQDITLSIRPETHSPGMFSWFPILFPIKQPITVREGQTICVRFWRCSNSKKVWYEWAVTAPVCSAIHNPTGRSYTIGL
T1 sequence (Q9BQA1 whole entry partner): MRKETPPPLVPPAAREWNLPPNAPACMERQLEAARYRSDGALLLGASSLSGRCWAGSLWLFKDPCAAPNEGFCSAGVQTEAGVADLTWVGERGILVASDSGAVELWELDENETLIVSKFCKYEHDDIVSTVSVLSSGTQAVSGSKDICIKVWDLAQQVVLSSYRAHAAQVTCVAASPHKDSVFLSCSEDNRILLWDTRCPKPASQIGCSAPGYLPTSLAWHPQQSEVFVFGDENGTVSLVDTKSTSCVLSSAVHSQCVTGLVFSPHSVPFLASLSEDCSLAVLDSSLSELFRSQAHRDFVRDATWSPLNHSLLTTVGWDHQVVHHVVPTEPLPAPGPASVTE
Outline: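 Three cofactor conditions are run: SAM-bound, MTA-bound and cofactor-free enzyme. IC50 is read from each; for the SAM and MTA arms it is divided by 1.5 and 13.5 respectively to give Ki.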

[4] = molecular target: T1, PRMT5; experiment: PRMT5 IC50 assay with no cofactor; type: biochemical; conditions: read-out: No Co-factor IC50
Outline: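 Cofactor-free, SAM and MTA formats; IC50 μM; Ki = IC50/1.5 for SAM, IC50/13.5 for MTA.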

[5] = molecular target: T1, PRMT5; experiment: PRMT5 IC50 assay in the presence of SAM as cofactor; type: biochemical
Outline: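 MTA-dependent versus SAM-dependent inhibition of human PRMT5 was assessed by IC50; conversion factors of 13.5 and 1.5 gave the corresponding Ki.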

| SMILES | IC50 [1] [nM] | IC50 [2] [nM] | IC50 [3] [nM] | IC50 [4] [nM] | IC50 [5] [nM] | MTAP Intact/Deleted Ratio [1] | SAM/MTA Ratio [3] |
| --- | --- | --- | --- | --- | --- | --- | --- |
| O=C(NC[C@H](O)CN1CCc2cc(OCc3cnco3)ccc2C1)c1ccnc(Nc2cccnc2)c1 [Compound 399, (S)—N-(2-hydroxy-3-(6-(oxazol-5-ylmethoxy)-3N-dihydroisoquinolin-2(1H)-yl)propyl)-2-(pyridin-3-ylamino)isonicotinamide] | < 1000 | 1000 to 10000 | 50 to 500 | ≥ 5000 | 500 to 5000 | B* (an IC50 ratio greater than or equal to 3 fold but lower than 10 fold between the IC50 in the HAP1 MTAP-intact cell line and the HAP1 MTAP-deleted cell line) | A (a Ki ratio greater than or equal to 10 fold between the Ki in the presence of SAM and the Ki in the presence of MTA) |
| Cc1ncoc1COc1ccc2c(c1)CCN(C[C@@H](O)CNC(=O)c1cc(NC3COC3)nc(N3CCN(C(=O)C4CC4)CC3)n1)C2 [Compound 400, 2-(4-cyclopropanecarbonylpiperazin-1-yl)-N-[(2S)-2-hydroxy-3-{6-[(4-methyl-1,3-oxazol-5-yl)methoxy]-1,2,3,4-tetrahydroisoquinolin-2-yl}propyl]-6-[(oxetan-3-yl)amino]pyrimidine-4-carboxamide] | < 1000 | 1000 to 10000 | 50 to 500 | 500 to 5000 | 50 to 500 | B* (an IC50 ratio greater than or equal to 3 fold but lower than 10 fold between the IC50 in the HAP1 MTAP-intact cell line and the HAP1 MTAP-deleted cell line) | A (a Ki ratio greater than or equal to 10 fold between the Ki in the presence of SAM and the Ki in the presence of MTA) |
| CC(=O)N1CCN(c2nc(NC3COC3)cc(C(=O)NC[C@H](O)CN3CCc4cc(OCc5ocnc5C)ccc4C3)n2)CC1 [Compound 401, 2-(4-acetylpiperazin-1-yl)-N-[(2S)-2-hydroxy-3-{6-[(4-methyl-E3-oxazol-5-yl)methoxy]-1,2,3,4-tetrahydroisoquinolin-2-yl}propyl]-6-[(oxetan-3-yl)amino]pyrimidine-4-carboxamide] | 1000 to 10000 | ≥ 10000 | 50 to 500 | 500 to 5000 | 50 to 500 | B* (an IC50 ratio greater than or equal to 3 fold but lower than 10 fold between the IC50 in the HAP1 MTAP-intact cell line and the HAP1 MTAP-deleted cell line) | A (a Ki ratio greater than or equal to 10 fold between the Ki in the presence of SAM and the Ki in the presence of MTA) |
| Cc1c(OCc2cnco2)ccc2c1CCN(C[C@@H](O)CNC(=O)c1ccnc(NC3CCN(C(=O)C(C)(C)C)CC3)c1)C2 [Compound 402, (S)—N-(2-hydroxy-3-(5-methyl-6-(oxazol-5-ylmethoxy)-3N-dihydroisoquinolin-2(1H)-yl)propyl)-2-((1-pivaloylpiperidin-4-yl)amino)isonicotinamide] | 1000 to 10000 | ≥ 10000 | 50 to 500 | 500 to 5000 | 50 to 500 | B* (an IC50 ratio greater than or equal to 3 fold but lower than 10 fold between the IC50 in the HAP1 MTAP-intact cell line and the HAP1 MTAP-deleted cell line) | A (a Ki ratio greater than or equal to 10 fold between the Ki in the presence of SAM and the Ki in the presence of MTA) |
| Cc1ncoc1COc1ccc2c(c1)CCN(C[C@@H](O)CNC(=O)c1cc(NC3CCC3)nc(N3CCN(C(C)(C)C)CC3)c1)C2 [Compound 403, 2-(4-tert-butylpiperazin-1-yl)-6-(cyclobutylamino)-N-[(2S)-2-hydroxy-3-{6-[(4-methyl-1,3-oxazol-5-yl)methoxy]-1,2,3,4-tetrahydroisoquinolin-2-yl}propyl]pyridine-4-carboxamide] | ≥ 10000 | < 1000 | 50 to 500 | 500 to 5000 | 50 to 500 | C* (an IC50 ratio of less than 3 fold between the IC50 in the HAP1 MTAP-intact cell line and the HAP1 MTAP-deleted cell line) | A (a Ki ratio greater than or equal to 10 fold between the Ki in the presence of SAM and the Ki in the presence of MTA) |
| O=C(NC[C@H](O)CN1CCc2c(ccc(OCc3cnco3)c2Br)C1)c1ccnc(NC2CCCC2)c1 [Compound 404, (S)—N-(3-(5-bromo-6-(oxazol-5-ylmethoxy)-3N-dihydroisoquinolin-2(1H)-yl)-2-hydroxypropyl)-2-(cyclopentylamino)isonicotinamide] | ≥ 10000 | ≥ 10000 | 50 to 500 | ≥ 5000 | 50 to 500 | C* (an IC50 ratio of less than 3 fold between the IC50 in the HAP1 MTAP-intact cell line and the HAP1 MTAP-deleted cell line) | A (a Ki ratio greater than or equal to 10 fold between the Ki in the presence of SAM and the Ki in the presence of MTA) |

Further lines, with some results ahead:

| IC50 [1] [nM] | IC50 [2] [nM] | IC50 [3] [nM] | IC50 [4] [nM] | IC50 [5] [nM] | SMILES | MTAP Intact/Deleted Ratio [1] | SAM/MTA Ratio [3] |
| --- | --- | --- | --- | --- | --- | --- | --- |
| < 1000 | < 1000 | 50 to 500 | 500 to 5000 | 50 to 500 | Cc1ncoc1COc1ccc2c(c1)CCN(C[C@@H](O)CNC(=O)c1cc(NC3COC3)nc(N3CCCCC3)n1)C2 [Compound 405, N-[(2S)-2-hydroxy-3-{6-[(4-methyl-1,3-oxazol-5-yl)methoxy]-1,2,3,4-tetrahydroisoquinolin-2-yl}propyl]-6-[(oxetan-3-yl)amino]-2-(piperidin-1-yl)pyrimidine-4-carboxamide] | B* (an IC50 ratio greater than or equal to 3 fold but lower than 10 fold between the IC50 in the HAP1 MTAP-intact cell line and the HAP1 MTAP-deleted cell line) | A (a Ki ratio greater than or equal to 10 fold between the Ki in the presence of SAM and the Ki in the presence of MTA) |
| < 1000 | < 1000 | < 50 | 500 to 5000 | 50 to 500 | Cc1ncoc1COc1ccc2c(c1)CCN(C[C@@H](O)CNC(=O)c1cc(NC3CCC3)nc(OCCN(C)C)c1)C2 [Compound 406, 2-(cyclobutylamino)-6-[2-(dimethylamino)ethoxy]-N-[(2S)-2-hydroxy-3-{6-[(4-methyl-1,3-oxazol-5-yl)methoxy]-1,2,3,4-tetrahydroisoquinolin-2-yl}propyl]pyridine-4-carboxamide] | B* (an IC50 ratio greater than or equal to 3 fold but lower than 10 fold between the IC50 in the HAP1 MTAP-intact cell line and the HAP1 MTAP-deleted cell line) | A (a Ki ratio greater than or equal to 10 fold between the Ki in the presence of SAM and the Ki in the presence of MTA) |
| < 1000 | < 1000 | 50 to 500 | ≥ 5000 | 50 to 500 | O=C(NC[C@H](O)CN1CCc2cc(OCc3cnco3)ccc2C1)c1ccnc(NC2CCCC2)c1 [Compound 407, (S)-2-(cxclopentylamino)-N-(2-hydroxy-3-(6-(oxazol-5-ylmethoxy)-3N-dihydroisoquinolin-2(1H)-yl)propyl)isonicotinamide] | B* (an IC50 ratio greater than or equal to 3 fold but lower than 10 fold between the IC50 in the HAP1 MTAP-intact cell line and the HAP1 MTAP-deleted cell line) | A (a Ki ratio greater than or equal to 10 fold between the Ki in the presence of SAM and the Ki in the presence of MTA) |
| < 1000 | < 1000 | 50 to 500 | 500 to 5000 | 50 to 500 | COCCN(C)c1nc(NC2COC2)cc(C(=O)NC[C@H](O)CN2CCc3cc(OCc4ocnc4C)ccc3C2)n1 [Compound 408, N-[(2S)-2-hydroxy-3-{6-[(4-methyl-1,3-oxazol-5-yl)methoxy]-1,2,3,4-tetrahydroisoquinolin-2-yl}propyl]-2-[(2-methoxyethyl)(methyl)amino]-6-[(oxetan-3-yl)amino]pyrimidine-4-carboxamide] | C* (an IC50 ratio of less than 3 fold between the IC50 in the HAP1 MTAP-intact cell line and the HAP1 MTAP-deleted cell line) | A (a Ki ratio greater than or equal to 10 fold between the Ki in the presence of SAM and the Ki in the presence of MTA) |
| 1000 to 10000 | ≥ 10000 | 50 to 500 | 500 to 5000 | 50 to 500 | CCC(=O)N1CCN(c2nc(NC3COC3)cc(C(=O)NC[C@H](O)CN3CCc4cc(OCc5ocnc5C)ccc4C3)n2)CC1 [Compound 409, N-[(2S)-2-hydroxy-3-{6-[(4-methyl-1,3-oxazol-5-yl)methoxy]-1,2,3,4-tetrahydroisoquinolin-2-yl}propyl]-6-[(oxetan-3-yl)amino]-2-(4-propanoylpiperazin-1-yl)pyrimidine-4-carboxamide] | B* (an IC50 ratio greater than or equal to 3 fold but lower than 10 fold between the IC50 in the HAP1 MTAP-intact cell line and the HAP1 MTAP-deleted cell line) | A (a Ki ratio greater than or equal to 10 fold between the Ki in the presence of SAM and the Ki in the presence of MTA) |

From patent publication US11986471B2, “Compounds and methods of use” (Tango Therapeutics, Inc., priority 2018, dated 2024)
